In article PMC11873239, “A covalent chemical probe for Chikungunya nsP2 cysteine protease with antialphaviral activity and proteome-wide selectivity” (Scientific Reports, 2025):

Key:
CHIKV nsP2pro = CHIKV nsP2pro (Chikungunya virus, UniProt F2YI08); assay: biochemical
[1] = biological target: HEK293 cell lysate proteins (Homo sapiens, UniProt A8K2U0); assay type: binding
[2] = biological target: HEK293 cell lysate proteins (Homo sapiens, UniProt O75342); assay type: binding
[3] = biological target: HEK293 cell lysate proteins (Homo sapiens, UniProt P04040); assay type: binding
[4] = biological target: HEK293 cell lysate proteins (Homo sapiens, UniProt P04264); assay type: binding
[5] = biological target: HEK293 cell lysate proteins (Homo sapiens, UniProt P04406); assay type: binding
[6] = biological target: HEK293 cell lysate proteins (Homo sapiens, UniProt P07339); assay type: binding
[7] = biological target: HEK293 cell lysate proteins (Homo sapiens, UniProt P07355); assay type: binding
[8] = biological target: HEK293 cell lysate proteins (Homo sapiens, UniProt P0DOX5); assay type: binding
[9] = biological target: HEK293 cell lysate proteins (Homo sapiens, UniProt P11142); assay type: binding
[10] = biological target: HEK293 cell lysate proteins (Homo sapiens, UniProt P14923); assay type: binding
[11] = biological target: HEK293 cell lysate proteins (Homo sapiens, UniProt P15924); assay type: binding
[12] = biological target: HEK293 cell lysate proteins (Homo sapiens, UniProt P22528); assay type: binding
[13] = biological target: HEK293 cell lysate proteins (Homo sapiens, UniProt P22531); assay type: binding
[14] = biological target: HEK293 cell lysate proteins (Homo sapiens, UniProt P23490); assay type: binding
[15] = biological target: HEK293 cell lysate proteins (Homo sapiens, UniProt P25311); assay type: binding
[16] = biological target: HEK293 cell lysate proteins (Homo sapiens, UniProt P32119); assay type: binding
[17] = biological target: HEK293 cell lysate proteins (Homo sapiens, UniProt P42357); assay type: binding
[18] = biological target: HEK293 cell lysate proteins (Homo sapiens, UniProt P60709); assay type: binding
[19] = biological target: HEK293 cell lysate proteins (Homo sapiens, UniProt P84103); assay type: binding
[20] = biological target: HEK293 cell lysate proteins (Homo sapiens, UniProt Q01469); assay type: binding
[21] = biological target: HEK293 cell lysate proteins (Homo sapiens, UniProt Q02413); assay type: binding
[22] = biological target: HEK293 cell lysate proteins (Homo sapiens, UniProt Q03164); assay type: binding
[23] = biological target: HEK293 cell lysate proteins (Homo sapiens, UniProt Q08188); assay type: binding
[24] = biological target: HEK293 cell lysate proteins (Homo sapiens, UniProt Q13428); assay type: binding
[25] = biological target: HEK293 cell lysate proteins (Homo sapiens, UniProt Q13867); assay type: binding
[26] = biological target: HEK293 cell lysate proteins (Homo sapiens, UniProt Q14684); assay type: binding
[27] = biological target: HEK293 cell lysate proteins (Homo sapiens, UniProt Q15517); assay type: binding
[28] = biological target: HEK293 cell lysate proteins (Homo sapiens, UniProt Q15648); assay type: binding
[29] = biological target: HEK293 cell lysate proteins (Homo sapiens, UniProt Q3KQU3); assay type: binding
[30] = biological target: HEK293 cell lysate proteins (Homo sapiens, UniProt Q52LG2); assay type: binding
[31] = biological target: HEK293 cell lysate proteins (Homo sapiens, UniProt Q8N1N4); assay type: binding
[32] = biological target: HEK293 cell lysate proteins (Homo sapiens, UniProt Q8WVV4); assay type: binding
[33] = biological target: HEK293 cell lysate proteins (Homo sapiens, UniProt Q96P63); assay type: binding
Chain of HEK293 cell lysate proteins (Homo sapiens, UniProt Q96P63) (Q96P63 whole entry): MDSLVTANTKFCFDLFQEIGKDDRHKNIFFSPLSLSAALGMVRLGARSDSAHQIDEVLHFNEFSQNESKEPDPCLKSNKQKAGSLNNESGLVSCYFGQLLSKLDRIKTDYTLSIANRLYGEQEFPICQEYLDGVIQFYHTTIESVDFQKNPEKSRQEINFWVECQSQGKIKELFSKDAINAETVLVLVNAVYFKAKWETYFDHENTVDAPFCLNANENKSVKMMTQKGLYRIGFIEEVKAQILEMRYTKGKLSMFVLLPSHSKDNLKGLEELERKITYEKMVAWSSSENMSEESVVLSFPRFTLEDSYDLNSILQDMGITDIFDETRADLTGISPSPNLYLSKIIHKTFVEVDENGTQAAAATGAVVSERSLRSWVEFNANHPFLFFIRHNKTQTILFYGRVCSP

Chain of HEK293 cell lysate proteins (Homo sapiens, UniProt Q52LG2) (Q52LG2 whole entry): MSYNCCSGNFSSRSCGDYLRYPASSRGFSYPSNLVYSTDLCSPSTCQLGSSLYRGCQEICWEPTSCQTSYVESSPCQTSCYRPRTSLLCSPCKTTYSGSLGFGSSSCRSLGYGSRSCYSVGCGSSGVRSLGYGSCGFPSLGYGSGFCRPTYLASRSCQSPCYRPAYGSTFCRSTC
Chain of HEK293 cell lysate proteins (Homo sapiens, UniProt P84103) (P84103 whole entry): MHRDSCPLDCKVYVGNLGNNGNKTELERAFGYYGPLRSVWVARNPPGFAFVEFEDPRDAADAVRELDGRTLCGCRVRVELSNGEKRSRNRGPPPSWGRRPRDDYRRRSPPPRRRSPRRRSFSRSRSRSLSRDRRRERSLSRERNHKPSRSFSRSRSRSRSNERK
Chain of HEK293 cell lysate proteins (Homo sapiens, UniProt Q3KQU3) (Q3KQU3 whole entry): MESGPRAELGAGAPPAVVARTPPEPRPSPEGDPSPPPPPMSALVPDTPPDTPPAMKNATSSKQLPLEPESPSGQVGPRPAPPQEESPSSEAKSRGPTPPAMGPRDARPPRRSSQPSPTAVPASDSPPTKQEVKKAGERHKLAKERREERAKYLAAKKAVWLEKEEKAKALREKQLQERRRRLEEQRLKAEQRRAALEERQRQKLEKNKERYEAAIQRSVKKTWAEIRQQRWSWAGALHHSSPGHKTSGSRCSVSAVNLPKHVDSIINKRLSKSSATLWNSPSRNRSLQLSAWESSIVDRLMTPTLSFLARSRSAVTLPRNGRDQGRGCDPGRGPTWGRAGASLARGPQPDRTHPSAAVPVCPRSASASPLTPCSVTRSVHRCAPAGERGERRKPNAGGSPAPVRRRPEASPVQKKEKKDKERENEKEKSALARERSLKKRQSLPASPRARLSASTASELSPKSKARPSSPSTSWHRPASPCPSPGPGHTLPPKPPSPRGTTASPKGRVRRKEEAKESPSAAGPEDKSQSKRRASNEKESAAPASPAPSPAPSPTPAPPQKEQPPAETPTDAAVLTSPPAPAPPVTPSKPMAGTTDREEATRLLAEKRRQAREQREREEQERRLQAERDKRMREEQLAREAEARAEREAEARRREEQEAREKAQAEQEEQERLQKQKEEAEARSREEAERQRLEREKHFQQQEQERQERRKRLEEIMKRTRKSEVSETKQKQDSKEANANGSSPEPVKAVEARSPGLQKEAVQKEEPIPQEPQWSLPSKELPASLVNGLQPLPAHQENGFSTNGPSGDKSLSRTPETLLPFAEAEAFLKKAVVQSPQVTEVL
Chain of HEK293 cell lysate proteins (Homo sapiens, UniProt P32119) (P32119 whole entry): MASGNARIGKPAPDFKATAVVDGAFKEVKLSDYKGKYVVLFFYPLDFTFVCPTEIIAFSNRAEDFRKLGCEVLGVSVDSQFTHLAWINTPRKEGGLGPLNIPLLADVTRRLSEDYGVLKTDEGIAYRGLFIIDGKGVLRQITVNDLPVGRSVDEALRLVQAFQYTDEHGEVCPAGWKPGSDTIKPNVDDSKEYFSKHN
Chain of HEK293 cell lysate proteins (Homo sapiens, UniProt Q01469) (Q01469 whole entry, looked up): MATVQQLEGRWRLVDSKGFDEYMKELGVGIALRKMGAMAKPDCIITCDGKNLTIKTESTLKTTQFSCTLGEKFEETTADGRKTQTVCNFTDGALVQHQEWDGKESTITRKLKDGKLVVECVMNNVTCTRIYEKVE
Chain of HEK293 cell lysate proteins (Homo sapiens, UniProt Q08188) (Q08188 whole entry): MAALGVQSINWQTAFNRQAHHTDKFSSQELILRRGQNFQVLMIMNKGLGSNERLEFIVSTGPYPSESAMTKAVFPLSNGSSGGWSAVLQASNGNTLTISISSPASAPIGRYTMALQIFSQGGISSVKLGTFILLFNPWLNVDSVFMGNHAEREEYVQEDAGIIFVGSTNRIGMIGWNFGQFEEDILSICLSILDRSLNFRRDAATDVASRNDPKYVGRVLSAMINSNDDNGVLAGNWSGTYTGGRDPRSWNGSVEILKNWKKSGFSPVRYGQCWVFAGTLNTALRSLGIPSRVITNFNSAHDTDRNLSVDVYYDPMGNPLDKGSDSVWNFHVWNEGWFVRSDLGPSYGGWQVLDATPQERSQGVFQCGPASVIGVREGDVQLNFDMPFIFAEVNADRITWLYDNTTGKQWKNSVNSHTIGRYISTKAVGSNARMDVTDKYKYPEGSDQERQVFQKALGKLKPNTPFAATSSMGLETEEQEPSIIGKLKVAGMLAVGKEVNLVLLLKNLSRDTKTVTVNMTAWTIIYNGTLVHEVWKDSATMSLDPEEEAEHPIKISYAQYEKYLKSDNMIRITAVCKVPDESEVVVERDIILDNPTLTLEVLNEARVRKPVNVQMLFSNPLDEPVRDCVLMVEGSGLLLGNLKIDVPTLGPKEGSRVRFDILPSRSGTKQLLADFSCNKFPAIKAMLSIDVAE
Chain of HEK293 cell lysate proteins (Homo sapiens, UniProt A8K2U0) (A8K2U0 18-1454): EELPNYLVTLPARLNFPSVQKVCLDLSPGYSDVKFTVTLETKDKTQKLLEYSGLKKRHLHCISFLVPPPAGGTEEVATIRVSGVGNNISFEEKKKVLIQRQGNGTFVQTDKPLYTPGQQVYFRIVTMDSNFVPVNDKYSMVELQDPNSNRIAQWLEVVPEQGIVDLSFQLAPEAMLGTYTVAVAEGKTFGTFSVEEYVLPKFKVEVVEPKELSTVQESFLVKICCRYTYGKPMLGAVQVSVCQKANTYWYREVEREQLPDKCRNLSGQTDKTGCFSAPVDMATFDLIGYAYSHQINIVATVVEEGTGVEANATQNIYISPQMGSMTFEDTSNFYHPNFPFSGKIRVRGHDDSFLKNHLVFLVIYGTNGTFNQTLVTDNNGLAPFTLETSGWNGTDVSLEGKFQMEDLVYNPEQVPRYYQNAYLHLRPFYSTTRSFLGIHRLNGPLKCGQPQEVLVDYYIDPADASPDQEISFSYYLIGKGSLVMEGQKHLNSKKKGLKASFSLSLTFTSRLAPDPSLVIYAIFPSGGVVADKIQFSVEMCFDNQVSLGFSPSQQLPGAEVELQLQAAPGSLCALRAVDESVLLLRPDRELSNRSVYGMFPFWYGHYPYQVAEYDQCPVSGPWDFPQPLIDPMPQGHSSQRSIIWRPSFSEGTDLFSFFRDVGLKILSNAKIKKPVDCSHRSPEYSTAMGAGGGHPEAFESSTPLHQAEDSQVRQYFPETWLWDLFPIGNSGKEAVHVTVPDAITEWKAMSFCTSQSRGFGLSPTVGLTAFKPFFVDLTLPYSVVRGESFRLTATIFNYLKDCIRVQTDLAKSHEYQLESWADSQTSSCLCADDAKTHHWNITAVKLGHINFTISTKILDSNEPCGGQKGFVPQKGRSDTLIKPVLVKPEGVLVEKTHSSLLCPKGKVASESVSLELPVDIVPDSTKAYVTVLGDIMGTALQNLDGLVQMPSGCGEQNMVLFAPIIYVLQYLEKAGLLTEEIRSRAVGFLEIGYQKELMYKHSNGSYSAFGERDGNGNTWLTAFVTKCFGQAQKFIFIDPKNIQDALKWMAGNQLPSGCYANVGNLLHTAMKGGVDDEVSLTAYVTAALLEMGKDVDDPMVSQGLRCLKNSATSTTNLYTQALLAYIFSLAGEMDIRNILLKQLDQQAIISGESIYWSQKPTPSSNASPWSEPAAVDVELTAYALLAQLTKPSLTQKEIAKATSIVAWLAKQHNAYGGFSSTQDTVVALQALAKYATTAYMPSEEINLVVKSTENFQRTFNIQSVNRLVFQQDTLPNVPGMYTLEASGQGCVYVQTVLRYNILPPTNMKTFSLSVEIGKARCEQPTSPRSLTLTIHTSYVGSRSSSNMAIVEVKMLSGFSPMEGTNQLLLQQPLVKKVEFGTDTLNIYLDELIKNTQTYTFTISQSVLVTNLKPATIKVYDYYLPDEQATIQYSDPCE
Chain of HEK293 cell lysate proteins (Homo sapiens, UniProt Q15517) (Q15517 33-529): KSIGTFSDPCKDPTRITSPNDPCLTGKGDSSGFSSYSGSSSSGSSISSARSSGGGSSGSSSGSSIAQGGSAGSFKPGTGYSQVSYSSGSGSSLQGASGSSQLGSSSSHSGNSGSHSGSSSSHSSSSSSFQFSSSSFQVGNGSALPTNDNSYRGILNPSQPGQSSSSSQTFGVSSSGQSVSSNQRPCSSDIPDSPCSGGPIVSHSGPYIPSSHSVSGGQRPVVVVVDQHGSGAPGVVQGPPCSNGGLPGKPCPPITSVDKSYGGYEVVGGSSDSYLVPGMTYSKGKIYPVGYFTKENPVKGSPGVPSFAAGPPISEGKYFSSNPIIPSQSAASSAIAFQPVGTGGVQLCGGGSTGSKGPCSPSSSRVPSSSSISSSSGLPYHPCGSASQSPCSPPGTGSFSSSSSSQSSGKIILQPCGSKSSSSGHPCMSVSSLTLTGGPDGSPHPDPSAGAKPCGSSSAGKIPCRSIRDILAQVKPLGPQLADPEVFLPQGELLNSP
Chain of HEK293 cell lysate proteins (Homo sapiens, UniProt Q13867) (Q13867 whole entry): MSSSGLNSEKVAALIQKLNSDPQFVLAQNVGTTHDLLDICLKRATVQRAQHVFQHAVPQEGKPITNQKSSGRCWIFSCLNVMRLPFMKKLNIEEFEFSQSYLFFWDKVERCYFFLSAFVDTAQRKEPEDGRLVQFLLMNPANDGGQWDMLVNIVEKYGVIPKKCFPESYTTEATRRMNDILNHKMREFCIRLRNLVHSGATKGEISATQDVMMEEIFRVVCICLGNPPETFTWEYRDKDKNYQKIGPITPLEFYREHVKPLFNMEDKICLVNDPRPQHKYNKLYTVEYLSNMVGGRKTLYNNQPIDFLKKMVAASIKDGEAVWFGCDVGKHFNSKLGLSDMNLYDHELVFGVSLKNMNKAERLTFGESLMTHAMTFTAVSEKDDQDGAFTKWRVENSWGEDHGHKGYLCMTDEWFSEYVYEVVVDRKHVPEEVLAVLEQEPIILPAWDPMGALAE

## C#CCOc1ccccc1-c1cc(C(=O)NC/C=C/S(C)(=O)=O)on1 [VS, (E)-N-(3-(methylsulfonyl)allyl)−3-(2-(prop-2-yn-1-yloxy)phenyl)isoxazole-5-carboxamide]
CHIKV nsP2pro
  IC50: 65 nM
[1]
  Log2 fold change: 1.10
[2]
  Log2 fold change: 2.14
[3]
  Log2 fold change: 1.41
[4]
  Log2 fold change: 1.49
[5]
  Log2 fold change: 1.78
[6]
  Log2 fold change: 1.67
[7]
  Log2 fold change: 1.52
[8]
  Log2 fold change: 1.84
[9]
  Log2 fold change: 1.15
[10]
  Log2 fold change: 1.97
[11]
  Log2 fold change: 2.05
[12]
  Log2 fold change: 2.72
[13]
  Log2 fold change: 2.37
[14]
  Log2 fold change: 2.79
[15]
  Log2 fold change: 1.43
[16]
  Log2 fold change: 2.04
[17]
  Log2 fold change: 1.12
[18]
  Log2 fold change: 1.54
[19]
  Log2 fold change: 1.43
[20]
  Log2 fold change: 2.38
[21]
  Log2 fold change: 1.36
[22]
  Log2 fold change: -1.44
[23]
  Log2 fold change: 1.61
[24]
  Log2 fold change: 1.02
[25]
  Log2 fold change: 1.56
[26]
  Log2 fold change: -2.16
[27]
  Log2 fold change: 1.22
[28]
  Log2 fold change: -1.21
[29]
  Log2 fold change: -2.07
[30]
  Log2 fold change: 3.14
[31]
  Log2 fold change: 1.62
[32]
  Log2 fold change: 5.21
[33]
  Log2 fold change: 1.71
